# Legend:
# Assay type in all cases: in vivo, human
# [1] = system: adult patients with OSA and ES; assay: PGI-C, 12-week placebo-controlled parallel study in OSA; conditions: 37.5, 75, 150, 300 mg; week 12; listed as APC
# Procedure: (§1) The study was a 12-week, double-blind, placebo-controlled, parallel design study as described in greater detail in Example 1 (Schweitzer et al., Sleep 40(Abstract Supplement):A237. Abstract 0641 (2017)). Patients were randomized (1:1:2:2:2) to APC 37.5, 75, 150, 300 mg, or placebo for 12 weeks, and were stratified by adherence or non-adherence with primary OSA therapy (adherent definition was use for ≥4 hours per night on >70% of nights). Two patient-reported measures were included as secondary efficacy outcomes to evaluate the effects of APC on functional status and work productivity and activity impairment at baseline and weeks 1, 4, 8, and 12. The Functional Outcomes of Sleep questionnaire short version (FOSQ-10) (Chasens et al., Sleep 32(7):915 (2009)) evaluated the effects of ES on functioning. The Work Productivity and Activity Impairment questionnaire for Specific Health Problems (WPAI:SHP) (Reilly et al., Pharmacoeconomics 4(5):353 (1993); Reilly, Work Productivity and Activity Impairment Questionnaire: Specific Health Problem V2.0 (WPAI: SHP). www.reillyassociates.net/WPAI_SHP) evaluated work productivity impairment among employed patients and overall activity impairment outside of work among all patients for the past 7 days. […]
# [2] = system: adult patients with OSA and ES; assay: WPAI:SHP work productivity and activity impairment, 12-week parallel study in OSA; conditions: 150 and 300 mg; week 12
# Procedure: as §1
# [3] = system: adults with OSA and excessive sleepiness; assay: PGI-C and CGI-C, phase 3 randomized withdrawal study in OSA; conditions: Double-Blind Withdrawal Phase, switched to placebo compared with stayed on APC
# Procedure: (§2) The study was a double-blind, placebo-controlled, enriched, randomized withdrawal design (FIG. 1). In the Titration Phase (weeks 1-2), patients started on a once-daily dose of APC 75 mg and could be titrated up or down every 3 days to reach a maximum tolerated dose of APC 75, 150, or 300 mg. In the Stable-Dose Phase (weeks 3-4), patients continued to receive the dose that they were titrated to in the Titration Phase for 2 weeks. […]
# (§3) Efficacy was based on change from week 4 to 6 on the co-primary endpoints of MWT and ESS and percentage of patients reported as improved on the PGI-C and Clinician Global Impression of Change (CGI-C); assessed on a 7-point scale from 1 (very much improved) to 7 (very much worse).
# (§4) MWT and ESS data were analyzed using a mixed-effect model repeated measures (MMRM); PGI-C and CGI-C were evaluated using a chi-square test. […] Safety and tolerability were evaluated based on treatment-emergent adverse events (TEAEs), vital signs, and laboratory values.
# [4] = system: adults with OSA and excessive sleepiness; assay: Maintenance of Wakefulness Test (MWT), phase 3 randomized withdrawal study in OSA; conditions: for MWT mean sleep latency after 4 weeks of APC treatment: randomized patients, mITT, 75, 150 or 300 mg once daily
# Procedure: The MWT is an objective test used to measure how alert a subject is during the day. The test consists of four sleep trials with two hours in between the trials. The first trial is performed 1.5-3 hours after the subject's normal wake-up time. Sensors are placed on the head, face, and chin to detect when the subject is asleep and awake during the test. The subject sits quietly in bed with his or her back and head supported by a pillow and is asked to sit still and look straight ahead while trying to stay awake as long as possible. Each trial lasts 40 minutes or until the subject is asleep for 90 seconds. Between trials, the subject stays out of bed and occupies himself or herself to remain awake. Falling asleep in an average of less than eight minutes is considered abnormal. About 40-60% of subjects with normal sleep stay awake for the entire 40 minutes of all four trials.
# as §2, §3, §4
smiles,measurement,setting,value
"NC(=O)OC[C@H](N)Cc1ccccc1 [JZP-110, (R)-2-amino-3-phenylpropyl carbamate]","Key secondary endpoint, PGI-C",[1],met at all doses except for APC 37.5 mg
same,"WPAI:SHP presenteeism, overall work impairment and activity impairment compared to placebo",[2],"significantly decreased lower presenteeism, overall work impairment, and activity impairment"
same,Worsening of overall condition on the PGI-C and CGI-C,[3],Significantly higher percentages of patients who were switched to placebo experienced a worsening of their overall condition
same,Change in mean MWT sleep latency from week 4 to week 6,"[4]; Double-Blind Withdrawal Phase, patients who remained on JZP-110, P<0.0001 vs switched to placebo",-1.0 min
same,MWT mean sleep latency after 4 weeks of APC treatment,[4]; group increased from 12.3 at baseline,29.0 min
same,MWT mean sleep latency after 4 weeks of APC treatment,[4]; group increased from 13.1 at baseline,31.7 min

# Source: patent publication US11865098B1, “Methods and compositions for treating excessive sleepiness” (Axsome Malta Ltd., priority 2017, dated 2024)
